The values below come from patent publication US20250059231A1, “Protease inhibitors” (priority 2021, published 2025).

Where a SMILES comes first, the peptide text is derived from it. [ ]: non-standard residue; d: D form. The star is where a group is joined. Benzoyl(4-Ph) = O=C(c1ccc(-c2ccccc2)cc1)*; Palmitoyl = CCCCCCCCCCCCCCCC(=O)*; NHhexadecyl = CCCCCCCCCCCCCCCCN*; 3Pal = N[C@@H](Cc1cccnc1)C(=O)O; Lauroyl = CCCCCCCCCCCC(=O)*; β3hK = NCCCC[C@H](N)CC(=O)O; Pip = O=C(O)[C@@H]1CCCCN1; Octanoyl = CCCCCCCC(=O)*; NHOctyl = CCCCCCCCN*; Propionyl = CCC(=O)*; NHPr = CCCN*

The first assay deals with T1, DENV protease (Dengue virus type 2, UniProt P29990).
T1 construct: The virus-encoded dengue protease comprises the amino-terminal 180 amino acids of NS3 (NS3pro) of the polyprotein
T1 sequence (P29990 1398-1437): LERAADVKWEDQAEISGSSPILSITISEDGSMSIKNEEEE
T1 sequence (P29990 1476-1653): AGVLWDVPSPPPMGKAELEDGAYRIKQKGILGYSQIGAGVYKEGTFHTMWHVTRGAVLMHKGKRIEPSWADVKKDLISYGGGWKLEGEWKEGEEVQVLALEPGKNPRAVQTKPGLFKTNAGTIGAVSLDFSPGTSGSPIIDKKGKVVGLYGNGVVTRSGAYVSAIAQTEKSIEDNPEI
As to the kind of experiment: biochemical. The note with it: at 1 μM; read-out: inhibition of DENV. Here is the method: Dilutions were made starting from 10 mM stock solutions in DMSO and final concentrations were measured in triplicates. The inhibitors were preincubated for 15 min with DENV protease (100 nM) in the assay buffer (50 mM Tris-HCl pH 9.0, ethylene glycol (10% v/v), and 0.0016% Brij 58). The enzymatic reaction was initiated by the addition of the FRET substrate (final concentration 50 μM) to obtain a final assay volume of 100 μL per well. The enzymatic activity was monitored for 15 min and determined as a slope of relative fluorescence units per second (RFU/s) for each concentration. The mean of the triplicates were plotted against the corresponding concentration in CDDVault to determine the IC50-values. Analogous procedures were used to determine the inhibitory potency on WNV (Kühl et al., J. Med. Chem. 2020, 63 (15): 8179-8197) and ZIKA protease (Nitsche et al., ACS Med. Chem. Lett. 2019 Feb. 14; 10 (2): 168-174). For selectivity screening of active candidates, similar biochemical assays with human serine proteases trypsin (Weigel et al., J. Med. Chem. 2015, 58 (19), 7719-7733.) and/or thrombin (Nitsche et al., J. Med. Chem. 2013, 56 (21), 8389-8403) were used.
On to `CCCCCCCCCCCCCCCC(=O)N[C@@H](CCCCN)C(=O)N[C@@H](C)C(=O)N[C@@H](C)C(=O)N[C@H](CCc1c[nH]cn1)C(N)=O` [compound 173], for which the inhibition at 1 µM was not below 20%.
The same measure, in the same setting: with `CCCCCCCCCCCCCCCC(=O)N[C@@H](CCCCN)C(=O)N[C@@H](C)C(=O)N[C@@H](C)C(=O)N[C@@H](CCc1c[nH]cn1)C(N)=O` [compound 172] the figure was not below 20%.

Still in this assay, the particulars now being: at 50 μM; read-out: inhibition of DENV.
With `CCCCCCCCCCCCCCCC(=O)N[C@@H](CCCCN)C(=O)N1CCC[C@H]1C(=O)N[C@@H](C)C(=O)N[C@@H](CCCCN)c1nnc(C)o1` [compound 1], the inhibition at 50 µM was not below 25%.
The same measure, in the same setting: the value for `CCCCCCCCCCCCCCCC(=O)N[C@@H](CCCCN)C(=O)N[C@@H](C)C(=O)N[C@@H](C)C(=O)N[C@H](CCc1c[nH]cn1)C(N)=O` [compound 173] was not below 25%; that for `CCCCCCCCCCCCCCCCNC(=O)[C@H](CCCCN)NC(=O)[C@H](CCC(N)=O)NC(=O)[C@H](CCCNC(=N)N)NC(=O)[C@H](C)N` [compound 32] (H-ARQK-NHhexadecyl) was not below 25%; that for `CCCCCCCCCCCCCCCC(=O)N[C@@H](CCCCN)C(=O)N1CCC[C@H]1C(=O)N[C@@H](C)C(=O)N[C@@H](CCCCN)C(=O)c1ccccc1` [compound 128] was not below 25%.
The same measure, in the same setting: the value for `CCCCCCCCCCCCCCCC(=O)N[C@@H](C)C(=O)N1C[C@@H](Oc2ccncc2)C[C@H]1C(=O)N[C@@H](C)C(=O)N[C@@H](CCCCN)C(N)=O` [compound 7] was not below 25%; that for `CCCCCCCCCCCCCCCC(=O)N[C@@H](CCCNC(=N)N)C(=O)N[C@@H](CCC(N)=O)C(=O)N[C@@H](Cc1ccccc1)C(=O)O` [compound 45] (Palmitoyl-Arg-Gln-Phe-OH) was not below 25%; that for `CCCCCCCCCCCCCCCC(=O)N[C@@H](CCCCN)C(=O)N[C@@H](Cc1c[nH]cn1)C(N)=O` [compound 162] was not below 25%.
On to `CCCCCCCCCCCCCCCC(=O)N[C@@H](CCCCN)CC(=O)N1CCC[C@H]1C(=O)N[C@@H](C)C(=O)N[C@H](CCCCN)C(N)=O` [compound 119] (Palmitoyl-[β3hK]PA[dK]-NH2), for which the inhibition at 50 µM was not below 25%.
Still for that read-out and setting: with `CCCCCCCCCCCCCCCC(=O)N[C@@H](CCCCN)C(=O)N[C@@H](C)C(=O)N[C@H](CCCCN)C(=O)NS(=O)(=O)C1CC1` [compound 179] the figure was not below 25%.
Regarding `CCCCCCCCCCCCCCCC(=O)N[C@@H](CCCCN)C(=O)N1CCC[C@H]1C(=O)N[C@@H](C)C(=O)N[C@H](C(N)=O)c1ccc(OCc2ccccc2)cc1` [compound 130], the inhibition at 50 µM is not below 25%.
On the same count and under the same terms, the value for `CCCCCCCCCCCCCCCC(=O)N[C@@H](C)C(=O)N[C@@H](C)C(=O)N[C@@H](CCCCN)C(=O)N[C@H](C)C(N)=O` [compound 149] (Palmitoyl-AAK[dA]-NH2) was not below 25%; that for `C[C@H](NC(=O)c1ccc(-c2ccccc2)cc1)C(=O)N[C@@H](CCCNC(=N)N)C(=O)N[C@@H](CCC(N)=O)C(=O)N[C@@H](CCCCN)C(N)=O` [compound 37] ({Benzoyl(4-Ph)}-ARQK-NH2) was not below 25%.
On the same count and under the same terms, with `CCCCCCCCCCCCCCCC(=O)N[C@@H](CCCCN)C(=O)N1CCCC[C@H]1C(=O)N[C@@H](Cc1cnc[nH]1)C(=O)N[C@@H](CCCCN)C(N)=O` [compound 14] (Palmitoyl-K[Pip]HK-NH2) the figure was not below 25%; with `CCCCCCCCCCCC(=O)N[C@@H](C)C(=O)N[C@@H](CCCCN)C(=O)N[C@@H](C)C(=O)N[C@H](C)C(N)=O` [compound 152] (Lauroyl-AKA[dA]-NH2), not below 25%; with `CCCCCCCCCCCCCCCC(=O)N[C@@H](CCCCN)C(=O)N[C@@H](C)C(=O)N[C@@H](C)C(=O)N[C@@H](C(N)=O)c1ccc(OCc2ccccc2)cc1` [compound 138], not below 25%.
Same read-out and setting: with `CCCCCCCCCCCCCCCC(=O)N[C@@H](CCc1c[nH]cn1)C(=O)N[C@@H](CCC(N)=O)C(=O)N[C@@H](Cc1ccccc1)C(N)=O` [compound 59] the figure was not below 25%; with `CCCCCCCCNC(=O)[C@H](CCCCN)NC(=O)[C@H](CCCCN)NC(=O)[C@H](CCCCN)NC(=O)[C@H](CC(C)C)NC(=O)CCCCCCC` [compound 19] (Octanoyl-LKKK-NHOctyl), not below 25%.
In the case of `CCCCCCCCCCCCCCCC(=O)N[C@@H](CCCCN)C(=O)N[C@@H](C)C(=O)N[C@H](CCCCN)C(N)=O` [compound 160] (Palmitoyl-Lys-Ala-[dK]-NH2), the inhibition at 50 µM was not below 25%.
Consider `CCCCCCCCCCCCCCCC(=O)N[C@@H](CCCCN)C(=O)N1CCC[C@H]1C(=O)N[C@@H](C)C(=O)N[C@@H](CCc1c[nH]cn1)C(N)=O` [compound 165], for which the inhibition at 50 µM is not below 25%.
Regarding `CCCCCCCCCCCCCCCC(=O)N[C@@H](CCCCN)C(=O)N[C@@H](C)C(=O)N[C@@H](C)C(=O)N[C@H](CCCCN)c1nnc(C)o1` [compound 2], the inhibition at 50 µM was not below 25%.
For the compound `CCCCCCCCCCCCCCCC(=O)N[C@@H](CCCNC(=N)N)C(=O)N[C@@H](CCCCN)C(N)=O` [compound 161] (Palmitoyl-Arg-Lys-NH2), the inhibition at 50 µM was not below 25%.
Still for that read-out and setting: with `CCCCCCCCCCCCCCCC(=O)N[C@@H](CCCCN)C(=O)N[C@@H](C)C(=O)N[C@@H](Cc1cnc[nH]1)C(N)=O` [compound 166] (Palmitoyl-Lys-Ala-His-NH2) the figure was not below 25%; with `CCCCCCCCCCCCCCCC(=O)N[C@@H](CCCCN)C(=O)N[C@@H](C)C(=O)N[C@@H](C)C(=O)N[C@H](Cc1c[nH]c2ccccc12)C(N)=O` [compound 93] (Palmitoyl-KAA[dW]-NH2), not below 25%; with `CCCCCCCCCCCCCCCC(=O)N[C@@H](CCCCN)C(=O)N1CCC[C@H]1C(=O)N[C@@H](C)C(=O)N[C@@H](CCc1ccccc1)c1nnc(C)o1` [compound 4], not below 25%.
For `CCCCCCCCCCCCCCCC(=O)N[C@@H](C)C(=O)N[C@@H](C)C(=O)N[C@@H](C)C(=O)N[C@H](CCCCN)C(N)=O` [compound 150] (Palmitoyl-AAA[dK]-NH2), the inhibition at 50 µM is not below 25%.
The same measure, in the same setting: the value for `CCCCCCCCCCCCCCCC(=O)N[C@@H](CCCCN)C(=O)N1CCC[C@H]1C(=O)N[C@@H](C)C(=O)N[C@@H](Cc1c[nH]cn1)C(N)=O` [compound 163] (Palmitoyl-KPAH-NH2) was not below 25%; that for `CCCCCCCCCCCCCCCC(=O)N[C@@H](CCCCN)C(=O)N1CCC[C@H]1C(=O)N[C@@H](Cc1cnc[nH]1)C(=O)N[C@@H](CCCCN)C(N)=O` [compound 12] (Palmitoyl-KPHK-NH2) was not below 25%.
Regarding `CCCCCCCCCCCCCCCC(=O)N[C@@H](CCCCN)C(=O)N[C@@H](C)C(=O)N[C@@H](CCCCN)C(N)=O` [compound 97] (Palmitoyl-Lys-Ala-Lys-NH2), the inhibition at 50 µM is not below 25%.
As for `CCCCCCCCCCCCCCCC(=O)N[C@@H](CCCCN)C(=O)N[C@@H](C)C(=O)N[C@@H](C)C(=O)N[C@H](C)C(N)=O` [compound 147] (Palmitoyl-KAA[dA]-NH2), the inhibition at 50 µM was not below 25%.
Still for that read-out and setting: with `CCCCCCCCCCCCCCCC(=O)N[C@@H](CCc1ccncc1)C(=O)N[C@@H](CCC(N)=O)C(=O)N[C@@H](Cc1ccccc1)C(N)=O` [compound 57] the figure was not below 25%; with `CCCCCCCCCCCCCCCC(=O)N[C@@H](CCCCN)CC(=O)N[C@@H](C)C(=O)N[C@@H](C)C(=O)N[C@@H](CCCCN)C(N)=O` [compound 82] (Palmitoyl-[β3hK]AAK-NH2), not below 25%; with `CCCNC(=O)[C@H](CCCCN)NC(=O)[C@H](CCCCN)NC(=O)[C@H](CCCCN)NC(=O)[C@H](Cc1ccccc1)NC(=O)CC` [compound 23] (Propionyl-FKKK-NHPr), not below 25%.
Consider `CCCCCCCCCCCCCCCC(=O)N[C@@H](CCCCN)C(=O)N[C@@H](C)C(=O)N[C@@H](C)C(=O)N[C@H](CCCCN)C(=O)O` [compound 134] (Palmitoyl-KAA[dK]-OH), for which the inhibition at 50 µM was not below 25%.
Same read-out and setting: with `CCCCCCCCCCCCCCCC(=O)N[C@@H](CCCNc1ncc[nH]1)C(=O)N[C@@H](CCC(N)=O)C(=O)N[C@@H](Cc1ccccc1)C(N)=O` [compound 65] the figure was not below 25%.
Still for that read-out and setting: the value for `CCCCCCCCCCCCCCCC(=O)N[C@@H](Cc1c[nH]cn1)C(=O)N[C@@H](CCC(N)=O)C(=O)N[C@@H](Cc1ccccc1)C(N)=O` [compound 52] (Palmitoyl-His-Gln-Phe-NH2) was not below 25%; that for `CCCCCCCCCCCCCCCC(=O)N[C@@H](CCCCN)C(=O)N1CCC[C@H]1C(=O)N[C@@H](C)C(=O)N[C@H](Cc1c[nH]cn1)C(N)=O` [compound 164] (Palmitoyl-KPA[dH]-NH2) was not below 25%; that for `CCCCCCCCCCCCCCCC(=O)N[C@@H](CCCCN)C(=O)N[C@@H](CCCNC(=N)N)C(N)=O` [compound 111] (Palmitoyl-Lys-Arg-NH2) was not below 25%.
On the same count and under the same terms, with `CCCCCCCCCCCCCCCC(=O)N[C@@H](CCCCN)C(=O)N[C@@H](C)C(=O)N[C@@H](C)C(=O)N[C@@H](CCc1c[nH]cn1)C(N)=O` [compound 172] the figure was not below 25%.
As for `CCCCCCCCCCCCCCCC(=O)N[C@@H](Cc1cccnc1)C(=O)N[C@@H](CCC(N)=O)C(=O)N[C@@H](Cc1ccccc1)C(N)=O` [compound 64] (Palmitoyl-[3Pal]-Gln-Phe-NH2), the inhibition at 50 µM is not below 25%.
The same measure, in the same setting: with `CCCCCCCCCCCCCCCC(=O)N[C@@H](CCCCN)C(=O)N[C@H](C)C(=O)N[C@@H](CCCCN)C(N)=O` [compound 146] (Palmitoyl-Lys-[dA]-Lys-NH2) the figure was not below 25%.

Still in this assay, the particulars now being: read-out: inhibition of DENV.
For `C[C@H](NC(=O)[C@H](CCCCN)NC(=O)c1ccc(-c2ccccc2)cc1)C(=O)N[C@@H](CCCCN)CC(=O)NCc1ccc(C(F)(F)F)cc1` [compound 78], the inhibition at 50 µM is not below 25%.
